Test results reported in the NIST ThermoML archive (doi:10.1021/je900524t).
± gives the expanded uncertainty stated by the source.

Conditions: Crystal; visual observation

In the case of `F[P-](F)(F)(F)(F)F.F[P-](F)(F)(F)(F)F.c1cc[n+](CC[n+]2ccccc2)cc1` [1,1'-(ethane-1,2-diyl)bis(pyridin-1-ium) hexafluorophosphate], the Normal melting temperature is reported as 220.20 ± 1.4 °C.
